According to ChEMBL document CHEMBL4431356, “Synthesis and activity of benzimidazole-1,3-dioxide inhibitors of separase” (Bioorg Med Chem Lett, 2016):

Legend:
Separin [1] = molecular target: T1, Separin (Homo sapiens, UniProt Q14674); experiment: Inhibition of epitope-tagged separase (unknown origin) using Rad21-MCA as substrate preincubated for 1 hr followed by substrate addition measured after 3 hrs by fluorescence assay
Separin [2] = molecular target: T1, Separin; experiment: Inhibition of human ZZ TEV4-tagged separase expressed in human 293T cells using (Rad21)2-Rh110 as substrate preincubated for 1 hr followed by substrate addition measured after 3 hrs by fluorescence assay

T1 sequence (Q14674 whole entry): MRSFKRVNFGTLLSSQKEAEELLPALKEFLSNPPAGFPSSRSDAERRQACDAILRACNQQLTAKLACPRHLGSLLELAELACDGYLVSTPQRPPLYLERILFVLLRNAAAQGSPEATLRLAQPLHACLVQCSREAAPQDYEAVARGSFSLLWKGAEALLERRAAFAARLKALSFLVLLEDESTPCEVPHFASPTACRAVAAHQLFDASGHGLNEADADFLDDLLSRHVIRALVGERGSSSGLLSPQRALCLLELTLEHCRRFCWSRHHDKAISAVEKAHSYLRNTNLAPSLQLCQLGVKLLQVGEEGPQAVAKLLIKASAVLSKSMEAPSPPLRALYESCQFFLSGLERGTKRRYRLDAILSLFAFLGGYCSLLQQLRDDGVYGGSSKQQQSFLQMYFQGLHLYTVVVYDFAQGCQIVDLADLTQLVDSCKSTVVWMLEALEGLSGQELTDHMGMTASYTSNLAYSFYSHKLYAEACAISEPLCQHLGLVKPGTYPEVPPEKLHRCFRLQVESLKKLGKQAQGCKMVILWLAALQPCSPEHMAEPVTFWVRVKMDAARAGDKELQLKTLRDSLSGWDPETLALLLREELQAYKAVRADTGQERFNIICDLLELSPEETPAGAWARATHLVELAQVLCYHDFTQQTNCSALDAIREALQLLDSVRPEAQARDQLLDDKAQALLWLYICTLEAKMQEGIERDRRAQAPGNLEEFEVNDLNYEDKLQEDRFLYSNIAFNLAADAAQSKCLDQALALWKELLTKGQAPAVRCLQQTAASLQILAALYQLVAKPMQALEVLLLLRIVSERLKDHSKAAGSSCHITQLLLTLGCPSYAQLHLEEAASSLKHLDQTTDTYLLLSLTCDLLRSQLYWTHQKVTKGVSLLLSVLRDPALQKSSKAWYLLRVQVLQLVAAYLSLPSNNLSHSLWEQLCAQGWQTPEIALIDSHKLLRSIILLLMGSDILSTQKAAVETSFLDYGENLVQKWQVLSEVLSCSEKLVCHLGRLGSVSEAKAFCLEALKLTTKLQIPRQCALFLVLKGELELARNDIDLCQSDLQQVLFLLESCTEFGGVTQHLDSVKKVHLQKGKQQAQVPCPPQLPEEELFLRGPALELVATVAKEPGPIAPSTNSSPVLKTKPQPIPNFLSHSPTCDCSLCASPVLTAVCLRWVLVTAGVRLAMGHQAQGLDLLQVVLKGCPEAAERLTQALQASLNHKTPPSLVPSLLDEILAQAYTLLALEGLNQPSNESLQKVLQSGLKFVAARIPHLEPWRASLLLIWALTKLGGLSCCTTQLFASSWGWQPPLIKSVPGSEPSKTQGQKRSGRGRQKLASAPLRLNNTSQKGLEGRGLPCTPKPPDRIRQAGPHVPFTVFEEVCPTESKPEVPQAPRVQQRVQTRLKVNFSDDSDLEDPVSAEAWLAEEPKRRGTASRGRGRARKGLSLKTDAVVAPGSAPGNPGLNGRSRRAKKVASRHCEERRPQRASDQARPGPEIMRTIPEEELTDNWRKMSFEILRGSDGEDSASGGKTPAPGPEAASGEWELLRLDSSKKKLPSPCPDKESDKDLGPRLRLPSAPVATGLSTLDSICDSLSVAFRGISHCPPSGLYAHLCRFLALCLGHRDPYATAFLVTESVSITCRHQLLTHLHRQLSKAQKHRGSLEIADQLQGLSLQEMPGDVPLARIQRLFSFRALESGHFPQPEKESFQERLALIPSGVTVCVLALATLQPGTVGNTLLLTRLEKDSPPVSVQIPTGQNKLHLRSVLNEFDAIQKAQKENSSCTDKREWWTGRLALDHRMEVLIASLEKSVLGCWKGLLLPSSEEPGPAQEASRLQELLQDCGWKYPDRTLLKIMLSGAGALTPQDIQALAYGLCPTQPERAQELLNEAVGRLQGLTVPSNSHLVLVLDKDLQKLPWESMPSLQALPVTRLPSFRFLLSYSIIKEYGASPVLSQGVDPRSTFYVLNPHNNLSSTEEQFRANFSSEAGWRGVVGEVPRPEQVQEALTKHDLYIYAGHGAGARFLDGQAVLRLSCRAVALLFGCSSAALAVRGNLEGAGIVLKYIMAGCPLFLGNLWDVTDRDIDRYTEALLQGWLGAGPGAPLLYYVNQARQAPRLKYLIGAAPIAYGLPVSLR

Question: For `CC1(C)[N+]([O-])=c2ccc(C(=O)O)cc2=[N+]1[O-]`, which IC50 (Separin [1]) is on record?
Answer: > 100 µM

Question: `COC(=O)c1ccc2c(c1)[n+]([O-])c(C)c(C)[n+]2[O-]` was tested. Which IC50 (Separin [1]) did it give?
Answer: > 100 µM

Question: Which IC50 (Separin [1]) does the source give for `CCCCNc1ccc2c(c1)=[N+]([O-])C(C)(C)[N+]=2[O-]` here?
Answer: > 100 µM

Question: `CCOc1cc2c(cc1F)=[N+]([O-])C(C)(C)[N+]=2[O-]` was tested. Which IC50 (Separin [1]) did it give?
Answer: > 100 µM

Question: For `O=[N+]([O-])c1ccc2c(c1)=[N+]([O-])C1(CCCCC1)[N+]=2[O-]`, which IC50 (Separin [1]) is on record?
Answer: 16.2 µM

Question: For `CC1(C)[N+]([O-])=c2ccc([N+](=O)[O-])cc2=[N+]1[O-]`, which IC50 (Separin [2]) is on record?
Answer: 15 µM

Question: What about the IC50 (Separin [1]) of the same compound?
Answer: 17.8 µM

Question: How did the IC50 (Separin [1]) turn out when `CC1(C)[N+]([O-])=c2ccc(C(F)(F)F)cc2=[N+]1[O-]` was run?
Answer: > 100 µM

Question: `CC1(C)[N+]([O-])=c2ccc(F)cc2=[N+]1[O-]` was tested. Which IC50 (Separin [1]) did it give?
Answer: > 100 µM

Question: For `COC(=O)c1ccc2c(c1)=[N+]([O-])C(C)(C)[N+]=2[O-]`, which IC50 (Separin [1]) is on record?
Answer: > 100 µM

Question: Which IC50 (Separin [1]) does the source give for `CC1(C)[N+]([O-])=c2ccc(-c3ccccc3)cc2=[N+]1[O-]` here?
Answer: > 100 µM

Question: For `CC1(C)[N+]([O-])=c2ccc(Br)cc2=[N+]1[O-]`, which IC50 (Separin [1]) is on record?
Answer: > 100 µM

Question: Which IC50 (Separin [1]) does the source give for `CCOc1ccc2c(c1)=[N+]([O-])C(C)(C)[N+]=2[O-]` here?
Answer: > 100 µM

Question: With `O=[N+]([O-])c1ccc2nonc2c1` as the compound, how does the IC50 (Separin [1]) read?
Answer: > 100 µM
